Measured values from PMC5970065 (Biochimica et biophysica acta, 2018).

Molecular target: myeloperoxidase (MPO) (Homo sapiens, UniProt P05164)
Assay type: biochemical

myeloperoxidase (MPO), sequence (P05164 165-273): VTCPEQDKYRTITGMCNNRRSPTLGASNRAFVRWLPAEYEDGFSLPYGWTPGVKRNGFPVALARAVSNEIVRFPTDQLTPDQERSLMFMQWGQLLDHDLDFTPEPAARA
myeloperoxidase (MPO), sequence (P05164 279-745): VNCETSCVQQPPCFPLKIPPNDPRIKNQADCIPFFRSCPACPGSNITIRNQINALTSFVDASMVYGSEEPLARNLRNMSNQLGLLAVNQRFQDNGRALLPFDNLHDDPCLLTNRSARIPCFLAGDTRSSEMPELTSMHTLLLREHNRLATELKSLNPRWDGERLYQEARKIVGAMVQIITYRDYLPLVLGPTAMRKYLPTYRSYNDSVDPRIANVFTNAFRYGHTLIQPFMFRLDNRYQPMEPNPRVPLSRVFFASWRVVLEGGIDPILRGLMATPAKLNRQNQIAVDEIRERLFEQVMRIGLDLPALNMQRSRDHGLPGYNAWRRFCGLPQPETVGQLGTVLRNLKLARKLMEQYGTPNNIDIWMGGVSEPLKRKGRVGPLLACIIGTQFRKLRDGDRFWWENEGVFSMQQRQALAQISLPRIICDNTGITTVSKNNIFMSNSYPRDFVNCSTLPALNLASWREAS

- IC50: 63.5 µM
Structure (SMILES): COc1cc(CC(CO[C@@H]2O[C@H](CO)[C@@H](O)[C@H](O)[C@H]2O)C(CO[C@@H]2O[C@H](CO)[C@@H](O)[C@H](O)[C@H]2O)Cc2ccc(O)c(OC)c2)ccc1O (stereo partly shown) [LGM2605]
